Reference: patent US11517556B2, “Composition for BKCa channel activation” (GWANGJU INSTITUTE OF SCIENCE AND TECHNOLOGY, priority 2016, dated 2022)

Biological target: T1, mutant BKCa channel (G803D/N806K) (Rattus norvegicus, UniProt Q62976, G803D/N806K)
T1 construct: expressed in transfected cells
Experiment: Cell-based TI+ fluorescence (FluxOR) assay in AD-293 cells
Settings: for TI+-fluorescence enhancement (initial RFU increase): 10 μM, n=4
Procedure: AD-293 cells (Lee et al., 2013), as a modified HEK293 cell for expressing a mutant BKCa channel, were placed in DMEM (Dulbecco's Modified Eagle's medium) supplemented with 10% fetal bovine serum and 1 mg/ml geneticin (Gibco) as an antibiotic. The cells were cultured under a humidified condition of 5% CO2 and 37° C.
AD-293 cells stably expressing the mutant BKCa channel (G803D/N806K) were used for cell-based assays (Lee et al., 2013). Approximately 20,000 cells/well were inoculated on a black-wall assay plate (Corning Incorporated) coated with poly-D-lysine (Sigma-Aldrich), which is 96-well clear-bottom. A FluxOR™ […] (Invitrogen) was used for initial screening of compound libraries, and for further assay of candidate compounds. Experiments were performed according to the manufacturer's following guidelines: growth medium was replaced with 80 μl/well of loading buffer containing FluxOR™ fluorescent dye, and incubation was carried out for 1 hour under a light-free condition. After the incubation, the loading buffer was replaced with 100 μl/well of assay buffer containing various concentrations of compounds of interest, followed by incubation for 20 minutes to 30 minutes. DMSO (1%) was vehicle and the vehicle was used for all test compounds. CTBIC (Cormemis et al. 2005; Lee et al. 2012), previously identified as an activator of the BKCa channel, was used as a positive control. For fluorescence measurements, synergy TM H1 hybrid multi-mode microplate reader (BioTek Instrument Inc., Winnoski, Vt.) and Cen5 software was used in initial screening. For additional assays, Flexstation 3 multi-mode microplate reader (Molecular Devices) and SoftMax®Pro software were used, respectively. A fluorescence signal was obtained at an excitation wavelength of 485 nm and an emission wavelength of 528 nm. Membrane polarization was induced by a stimulus buffer containing thallium ion. The fluorescence signal was measured under two conditions: every 10 seconds for 2 minutes before treating the stimulation buffer and then every 10 seconds for 3 minutes after addition of stimulation buffer for synergy H1, and every 2 seconds for 20 seconds before stimulus buffer treatment, and then every 2 seconds for 160 seconds after adding the stimulus buffer for FlexStation 3.
A fluorescence signal change was measured based on a relative fluorescence unit (RFU) or F/F0 where F0 is ta minimum fluorescence value of each fluorescence trace. To quantitatively compare activation effects of kurarinone and its derivatives, an initial fluorescence increase was calculated using first three points after treatment with the stimulation buffer, and a linear slope was predicted using OriginPro 9.1 (OriginLab Corp., Northampton, Mass.).

T1 sequence (Q62976 whole entry G803D/N806K): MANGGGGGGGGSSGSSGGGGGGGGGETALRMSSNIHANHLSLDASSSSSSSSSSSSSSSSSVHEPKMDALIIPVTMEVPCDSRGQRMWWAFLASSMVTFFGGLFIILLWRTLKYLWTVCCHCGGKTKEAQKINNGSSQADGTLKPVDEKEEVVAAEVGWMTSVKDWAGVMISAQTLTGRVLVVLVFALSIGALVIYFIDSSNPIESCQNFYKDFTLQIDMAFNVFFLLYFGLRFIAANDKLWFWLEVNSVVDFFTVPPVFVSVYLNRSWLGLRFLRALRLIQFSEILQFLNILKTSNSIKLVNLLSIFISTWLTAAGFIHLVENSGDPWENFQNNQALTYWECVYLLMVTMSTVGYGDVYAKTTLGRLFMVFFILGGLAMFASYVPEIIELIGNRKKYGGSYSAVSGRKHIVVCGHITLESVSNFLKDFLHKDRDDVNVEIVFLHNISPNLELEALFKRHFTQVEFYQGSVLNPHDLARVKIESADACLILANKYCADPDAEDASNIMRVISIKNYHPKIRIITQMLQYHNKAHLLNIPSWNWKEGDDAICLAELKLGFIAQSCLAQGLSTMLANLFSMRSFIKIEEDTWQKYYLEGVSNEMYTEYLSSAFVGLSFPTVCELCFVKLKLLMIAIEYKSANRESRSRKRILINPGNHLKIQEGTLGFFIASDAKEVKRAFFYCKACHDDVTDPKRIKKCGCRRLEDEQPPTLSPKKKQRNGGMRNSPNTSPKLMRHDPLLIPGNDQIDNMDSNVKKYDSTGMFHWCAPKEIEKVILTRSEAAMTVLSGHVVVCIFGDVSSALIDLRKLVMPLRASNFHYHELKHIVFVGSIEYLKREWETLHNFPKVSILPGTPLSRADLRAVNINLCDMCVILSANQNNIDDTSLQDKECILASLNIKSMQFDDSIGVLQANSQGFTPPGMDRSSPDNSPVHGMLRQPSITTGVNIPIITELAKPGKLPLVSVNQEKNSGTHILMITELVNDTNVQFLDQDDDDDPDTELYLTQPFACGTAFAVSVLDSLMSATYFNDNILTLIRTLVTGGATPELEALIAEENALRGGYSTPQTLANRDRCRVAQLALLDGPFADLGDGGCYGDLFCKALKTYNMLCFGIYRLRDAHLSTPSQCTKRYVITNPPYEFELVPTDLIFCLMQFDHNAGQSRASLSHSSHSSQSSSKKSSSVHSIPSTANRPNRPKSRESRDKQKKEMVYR

| TI+-fluorescence enhancement (initial RFU increase) | SMILES | block of kurarinone-induced fluorescence enhancement (co-treatment of 1 μM blocker with kurarinone (5 μM)) |
| --- | --- | --- |
| weaker fluorescence effects | C=C(C)[C@H](CCC(C)(C)O)Cc1c(O)cc(OC)c2c1O[C@H](c1ccc(O)cc1O)CC2=O [kurarinol, reference compound] |  |
| strong fluorescence increase | O=C1C[C@@H](c2ccc(O)cc2)Oc2cc(O)cc(O)c21 [naringenin] |  |
|  | CC(C)(O)[C@H]1O[C@H]2CC[C@@]3(C)[C@@](O)(CC[C@H]4Cc5c([nH]c6ccccc56)[C@@]43C)C2=CC1=O [pacilin, reference compound] | completely blocked |

| SMILES | TI+-fluorescence enhancement (initial RFU increase) | block of kurarinone-induced fluorescence enhancement (co-treatment of 1 μM blocker with kurarinone (5 μM)) |
| --- | --- | --- |
| CC(C)=CCc1c(O)cc(O)c2c1O[C@H](c1ccc(O)cc1O)CC2=O [leachianone G] | strong fluorescence increase |  |
